Our source for the Kd values is ChEMBL document CHEMBL3991601, “The target landscape of clinical kinase drugs” (Science, 2017).

Assay [1] has as its target T1, Mitogen-activated protein kinase kinase kinase 3 (Homo sapiens, UniProt Q99759).
T1 sequence (Q99759 whole entry): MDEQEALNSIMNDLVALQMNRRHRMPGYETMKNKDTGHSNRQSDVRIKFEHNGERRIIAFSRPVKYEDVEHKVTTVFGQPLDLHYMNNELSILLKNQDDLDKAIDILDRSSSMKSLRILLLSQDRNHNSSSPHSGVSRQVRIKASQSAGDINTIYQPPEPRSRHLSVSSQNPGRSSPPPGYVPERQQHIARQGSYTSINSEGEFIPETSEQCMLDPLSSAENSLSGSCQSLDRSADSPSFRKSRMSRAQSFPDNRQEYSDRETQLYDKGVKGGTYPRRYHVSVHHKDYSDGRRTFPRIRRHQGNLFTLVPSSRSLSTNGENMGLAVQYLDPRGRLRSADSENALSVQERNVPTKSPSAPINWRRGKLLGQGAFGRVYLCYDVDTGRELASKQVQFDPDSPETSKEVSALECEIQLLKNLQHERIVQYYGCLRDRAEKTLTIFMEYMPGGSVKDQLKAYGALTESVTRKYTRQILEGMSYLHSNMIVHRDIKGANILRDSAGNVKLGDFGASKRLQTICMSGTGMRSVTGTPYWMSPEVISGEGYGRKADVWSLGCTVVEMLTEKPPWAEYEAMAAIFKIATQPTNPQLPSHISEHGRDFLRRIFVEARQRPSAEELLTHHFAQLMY

The target in assay [2] is T2, Mitogen-activated protein kinase kinase kinase kinase 3 (Homo sapiens, UniProt Q8IVH8).
T2 sequence (Q8IVH8 whole entry): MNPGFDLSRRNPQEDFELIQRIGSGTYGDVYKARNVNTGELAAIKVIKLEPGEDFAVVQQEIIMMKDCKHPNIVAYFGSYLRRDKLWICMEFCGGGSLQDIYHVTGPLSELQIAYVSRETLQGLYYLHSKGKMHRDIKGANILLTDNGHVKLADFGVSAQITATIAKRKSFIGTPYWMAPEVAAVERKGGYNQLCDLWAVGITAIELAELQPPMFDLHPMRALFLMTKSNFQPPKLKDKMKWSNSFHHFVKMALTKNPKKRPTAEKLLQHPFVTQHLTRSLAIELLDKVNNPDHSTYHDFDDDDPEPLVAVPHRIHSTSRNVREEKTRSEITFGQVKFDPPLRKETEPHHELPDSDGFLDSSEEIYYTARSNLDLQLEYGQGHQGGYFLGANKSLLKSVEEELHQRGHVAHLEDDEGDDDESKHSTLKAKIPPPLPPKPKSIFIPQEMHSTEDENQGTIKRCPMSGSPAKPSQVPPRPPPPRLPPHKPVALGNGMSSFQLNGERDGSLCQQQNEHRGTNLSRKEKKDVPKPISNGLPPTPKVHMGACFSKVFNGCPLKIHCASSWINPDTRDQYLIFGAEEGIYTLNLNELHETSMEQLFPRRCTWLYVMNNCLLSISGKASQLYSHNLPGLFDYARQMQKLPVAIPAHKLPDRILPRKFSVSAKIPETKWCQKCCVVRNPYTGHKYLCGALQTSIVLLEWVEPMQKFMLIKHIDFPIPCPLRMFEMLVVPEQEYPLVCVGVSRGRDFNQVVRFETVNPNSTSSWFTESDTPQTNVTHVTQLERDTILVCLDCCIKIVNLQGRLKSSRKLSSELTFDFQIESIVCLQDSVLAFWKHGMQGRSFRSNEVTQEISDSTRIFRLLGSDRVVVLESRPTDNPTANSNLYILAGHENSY

For assay [3], the target named is Receptor-interacting serine/threonine-protein kinase 3 (Homo sapiens, UniProt Q9Y572).
Receptor-interacting serine/threonine-protein kinase 3, sequence (Q9Y572 whole entry): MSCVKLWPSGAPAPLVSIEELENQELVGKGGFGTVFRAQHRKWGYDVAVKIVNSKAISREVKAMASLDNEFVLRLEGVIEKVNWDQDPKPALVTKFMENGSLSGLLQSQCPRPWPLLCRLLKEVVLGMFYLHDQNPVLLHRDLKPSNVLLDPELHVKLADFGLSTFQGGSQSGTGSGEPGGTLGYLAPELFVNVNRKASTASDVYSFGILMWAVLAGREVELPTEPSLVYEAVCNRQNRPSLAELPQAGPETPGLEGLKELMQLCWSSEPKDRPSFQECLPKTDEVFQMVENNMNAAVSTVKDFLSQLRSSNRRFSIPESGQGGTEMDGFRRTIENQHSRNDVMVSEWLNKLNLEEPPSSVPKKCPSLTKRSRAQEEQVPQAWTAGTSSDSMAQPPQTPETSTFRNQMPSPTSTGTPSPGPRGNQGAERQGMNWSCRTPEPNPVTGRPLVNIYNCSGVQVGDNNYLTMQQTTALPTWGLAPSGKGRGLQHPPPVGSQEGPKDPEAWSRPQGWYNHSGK
Assay [4] has as its target T3, Tyrosine-protein kinase Tec (Homo sapiens, UniProt P42680).
T3 sequence (P42680 whole entry): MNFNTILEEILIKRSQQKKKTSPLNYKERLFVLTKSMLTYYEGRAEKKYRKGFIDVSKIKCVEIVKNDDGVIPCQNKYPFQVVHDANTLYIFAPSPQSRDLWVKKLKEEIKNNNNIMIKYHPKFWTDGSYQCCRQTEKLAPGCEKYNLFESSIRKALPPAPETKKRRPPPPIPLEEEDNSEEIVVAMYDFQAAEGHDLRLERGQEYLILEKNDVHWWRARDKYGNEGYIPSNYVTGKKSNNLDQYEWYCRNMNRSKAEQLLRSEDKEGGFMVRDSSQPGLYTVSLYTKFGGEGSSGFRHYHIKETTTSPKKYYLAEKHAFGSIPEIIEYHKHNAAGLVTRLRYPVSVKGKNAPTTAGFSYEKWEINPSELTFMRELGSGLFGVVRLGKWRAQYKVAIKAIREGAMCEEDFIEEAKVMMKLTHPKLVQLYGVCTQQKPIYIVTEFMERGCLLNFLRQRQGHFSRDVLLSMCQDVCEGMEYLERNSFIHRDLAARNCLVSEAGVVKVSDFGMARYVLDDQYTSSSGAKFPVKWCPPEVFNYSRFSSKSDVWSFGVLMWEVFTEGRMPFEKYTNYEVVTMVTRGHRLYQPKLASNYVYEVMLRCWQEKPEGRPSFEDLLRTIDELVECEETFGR

Assay [5] has as its target Dual specificity testis-specific protein kinase 1 (Homo sapiens, UniProt Q15569).
Assay [6] deals with T4, Tyrosine--tRNA ligase, cytoplasmic (Homo sapiens, UniProt P54577).
T4 sequence (P54577 whole entry): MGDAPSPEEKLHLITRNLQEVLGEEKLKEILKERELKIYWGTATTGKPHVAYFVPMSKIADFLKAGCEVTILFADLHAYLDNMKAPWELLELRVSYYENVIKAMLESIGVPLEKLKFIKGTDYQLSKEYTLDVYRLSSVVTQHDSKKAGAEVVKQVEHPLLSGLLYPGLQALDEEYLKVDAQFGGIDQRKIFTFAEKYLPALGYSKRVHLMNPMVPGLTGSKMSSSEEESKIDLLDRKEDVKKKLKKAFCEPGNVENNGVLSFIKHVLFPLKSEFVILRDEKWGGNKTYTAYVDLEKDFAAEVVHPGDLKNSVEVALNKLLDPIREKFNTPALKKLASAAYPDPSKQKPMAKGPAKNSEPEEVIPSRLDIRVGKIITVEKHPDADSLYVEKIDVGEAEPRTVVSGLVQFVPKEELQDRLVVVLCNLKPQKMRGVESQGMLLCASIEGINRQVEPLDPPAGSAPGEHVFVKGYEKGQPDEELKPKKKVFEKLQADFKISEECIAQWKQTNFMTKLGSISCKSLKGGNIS

Active and inactive are the calls of the source. Cut-off read from the data, not from the text of the source, for most assays here: actives have a measured Kd and inactives only a lower limit.
Note: in the data inactive means no Kd found up to 30 µM.

Dual specificity testis-specific protein kinase 1, sequence (Q15569 whole entry): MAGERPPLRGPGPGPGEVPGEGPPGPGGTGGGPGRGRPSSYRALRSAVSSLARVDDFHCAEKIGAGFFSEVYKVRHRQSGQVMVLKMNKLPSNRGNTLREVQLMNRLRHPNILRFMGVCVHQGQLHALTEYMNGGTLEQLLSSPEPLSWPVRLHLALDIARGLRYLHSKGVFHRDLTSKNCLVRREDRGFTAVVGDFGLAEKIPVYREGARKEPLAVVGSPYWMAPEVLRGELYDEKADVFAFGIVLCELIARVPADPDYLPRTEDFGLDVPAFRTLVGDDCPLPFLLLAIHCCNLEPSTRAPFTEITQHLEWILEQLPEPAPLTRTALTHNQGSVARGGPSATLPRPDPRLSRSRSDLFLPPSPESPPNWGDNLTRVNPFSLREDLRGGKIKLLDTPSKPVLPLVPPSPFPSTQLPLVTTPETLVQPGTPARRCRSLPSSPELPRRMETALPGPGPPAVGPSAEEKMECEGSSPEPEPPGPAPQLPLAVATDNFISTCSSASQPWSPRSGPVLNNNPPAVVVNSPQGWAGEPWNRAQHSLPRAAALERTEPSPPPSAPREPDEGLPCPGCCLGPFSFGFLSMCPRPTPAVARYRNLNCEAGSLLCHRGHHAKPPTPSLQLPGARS

On to `CO[C@H]1C[C@@H]2CC[C@@H](C)[C@@](O)(O2)C(=O)C(=O)N2CCCC[C@H]2C(=O)O[C@H]([C@H](C)C[C@@H]2CC[C@@H](OP(C)(C)=O)[C@H](OC)C2)CC(=O)[C@H](C)/C=C(\C)[C@@H](O)[C@@H](OC)C(=O)[C@H](C)C[C@H](C)/C=C/C=C/C=C/1C` [RIDAFOROLIMUS], for which the Kd in assay [1], in assay [2], in assay [3], in assay [4], in assay [5] and in assay [6] was > 30 µM (inactive) throughout.
For the compound `N#CC1(c2ccc(NC(=O)c3cccnc3NCc3ccncc3)cc2)CCCC1` [RIVOCERANIB], the Kd is > 30 µM (inactive) in assay [1]; > 30 µM (inactive) in assay [2]; 2.37 µM (active) in assay [3]; > 30 µM (inactive) in assay [4]; > 30 µM (inactive) in assay [5]; > 30 µM (inactive) in assay [6].
For the compound `O=c1[nH]ccc2cc(OC3CCNCC3)ccc12` [SAR-407899 FREE BASE], the Kd in assay [1], in assay [2], in assay [3], in assay [4], in assay [5] and in assay [6] was > 30 µM (inactive) in each case.
In the case of `CN1CCN(CCOc2cc(OC3CCOCC3)c3c(Nc4c(Cl)ccc5c4OCO5)ncnc3c2)CC1` [SARACATINIB], the Kd in assay [1] was > 30 µM (inactive); in assay [2] it was > 30 µM (inactive); in assay [3], 1.77 µM (active); in assay [4] it was > 30 µM (inactive); in assay [5], > 30 µM (inactive); in assay [6], > 30 µM (inactive).
As for `Cn1cc(-c2cnn3c(N)c(Br)c([C@@H]4CCCNC4)nc23)cn1` [SCH-900776], the Kd in assay [1], in assay [2], in assay [3], in assay [4], in assay [5] and in assay [6] was > 30 µM (inactive) each time.
In the case of `CO[C@H]1C[C@@H]2CC[C@@H](C)[C@@](O)(O2)C(=O)C(=O)N2CCCC[C@H]2C(=O)O[C@H]([C@H](C)C[C@@H]2CC[C@@H](O)[C@H](OC)C2)CC(=O)[C@H](C)/C=C(\C)[C@@H](O)[C@@H](OC)C(=O)[C@H](C)C[C@H](C)/C=C/C=C/C=C/1C` [SIROLIMUS], the Kd in assay [1], in assay [2], in assay [3], in assay [4], in assay [5] and in assay [6] was > 30 µM (inactive) in each case.
With `CCS(=O)(=O)c1cccc(-c2cc(C(=O)NC3CCN(C)CC3)c(C)c3[nH]c4ncc(C)cc4c23)c1` [TAK-901], the Kd is > 30 µM (inactive) in assay [1]; 9.28 µM in assay [2]; > 30 µM (inactive) in assay [3]; 0.282 µM (active) in assay [4]; > 30 µM (inactive) in assay [5]; > 30 µM (inactive) in assay [6].
As to `CO[C@H]1C[C@@H]2CC[C@@H](C)[C@@](O)(O2)C(=O)C(=O)N2CCCC[C@H]2C(=O)O[C@H]([C@H](C)C[C@@H]2CC[C@@H](OC(=O)C(C)(CO)CO)[C@H](OC)C2)CC(=O)[C@H](C)/C=C(\C)[C@@H](O)[C@@H](OC)C(=O)[C@H](C)C[C@H](C)/C=C/C=C/C=C/1C` [TEMSIROLIMUS], the Kd in assay [1], in assay [2], in assay [3], in assay [4], in assay [5] and in assay [6] was > 30 µM (inactive) each time.
On to `COc1cc2c(Nc3ccc(Cl)c(Cl)c3F)ncnc2cc1OC[C@@H]1C[C@@H]2CN(C)C[C@@H]2C1` [TESEVATINIB], for which the Kd is > 30 µM (inactive) in assay [1]; 1.82 µM (active) in assay [2]; 0.366 µM (active) in assay [3]; > 30 µM (inactive) in assay [4]; > 30 µM (inactive) in assay [5]; > 30 µM (inactive) in assay [6].
`O=C(Cc1ccc(-c2ccc(OCCN3CCOCC3)cc2)cn1)NCc1ccccc1` [TIRBANIBULIN]: the Kd in assay [1], in assay [2], in assay [3], in assay [4], in assay [5] and in assay [6] was > 30 µM (inactive) throughout.
For `O=C1NC(=O)[C@@H](c2cn3c4c(cccc24)CCC3)[C@@H]1c1c[nH]c2ccccc12` [TIVANTINIB], the Kd in assay [1], in assay [2], in assay [3], in assay [4], in assay [5] and in assay [6] was > 30 µM (inactive) in each case.
In the case of `C[C@@H](NC(=O)c1ncnc(N)c1Cl)c1ncc(C(=O)Nc2cc(C(F)(F)F)c(Cl)cn2)s1` [TOVORAFENIB], the Kd in assay [1] is > 30 µM (inactive); in assay [2], > 30 µM (inactive); in assay [3], 1.8 µM (active); in assay [4], > 30 µM (inactive); in assay [5], > 30 µM (inactive); in assay [6], > 30 µM (inactive).
For `Cc1cc(Nc2ncnc3ccc(NC4=NC(C)(C)CO4)cc23)ccc1Oc1ccn2ncnc2c1` [TUCATINIB], the Kd in assay [1] was > 30 µM (inactive); in assay [2], > 30 µM (inactive); in assay [3], 1.06 µM; in assay [4] it was > 30 µM (inactive); in assay [5] it was > 30 µM (inactive); in assay [6] it was > 30 µM (inactive).
On to `CC(C)c1cc(CNc2nc(Nc3cc(C4CC4)[nH]n3)cc(N3CCN(C)CC3)n2)on1` [XL-228], for which the Kd in assay [1] was > 30 µM (inactive); in assay [2], 0.526 µM (active); in assay [3], > 30 µM (inactive); in assay [4] it was 0.045 µM (active); in assay [5] it was > 30 µM (inactive); in assay [6] it was > 30 µM (inactive).
